The results in this text go back to ChEMBL document CHEMBL1143658, “Discovery of 2-[(2,4-dichlorophenyl)amino]-N-[(tetrahydro- 2H-pyran-4-yl)methyl]-4-(trifluoromethyl)- 5-pyrimidinecarboxamide, a selective CB2 receptor agonist for the treatment of inflammatory pain” (J Med Chem, 2007).

A short description of data set [1]: Drug concentration in blood of rat FCA model of inflammatory pain at 0.1 mg/kg, po after 1hr. The format is ADME, organism-based. Details: dose 0.1 mg/kg, route oral. The settings on record: read-out: Activity.
The nature of data set [2]: Drug concentration in blood of rat FCA model of inflammatory pain at 0.3 mg/kg, po after 1hr. The format is ADME, organism-based. Details: dose 0.3 mg/kg, route oral. Particulars: read-out: Activity.
Data set [3] can be described thus: Oral bioavailability in rat. It counts as ADME, organism-based. Particulars: in vivo.
Data set [4] has as its target Cytochrome P450 3A4 (Homo sapiens, UniProt P08684). The data set can be described thus: Inhibition of human CYP3A4.
The target in data set [5] is Cytochrome P450 2C9 (Homo sapiens, UniProt P11712). The data set can be described thus: Inhibition of human CYP2C9. The format is ADME.
Cytochrome P450 2C9, sequence (P11712 whole entry): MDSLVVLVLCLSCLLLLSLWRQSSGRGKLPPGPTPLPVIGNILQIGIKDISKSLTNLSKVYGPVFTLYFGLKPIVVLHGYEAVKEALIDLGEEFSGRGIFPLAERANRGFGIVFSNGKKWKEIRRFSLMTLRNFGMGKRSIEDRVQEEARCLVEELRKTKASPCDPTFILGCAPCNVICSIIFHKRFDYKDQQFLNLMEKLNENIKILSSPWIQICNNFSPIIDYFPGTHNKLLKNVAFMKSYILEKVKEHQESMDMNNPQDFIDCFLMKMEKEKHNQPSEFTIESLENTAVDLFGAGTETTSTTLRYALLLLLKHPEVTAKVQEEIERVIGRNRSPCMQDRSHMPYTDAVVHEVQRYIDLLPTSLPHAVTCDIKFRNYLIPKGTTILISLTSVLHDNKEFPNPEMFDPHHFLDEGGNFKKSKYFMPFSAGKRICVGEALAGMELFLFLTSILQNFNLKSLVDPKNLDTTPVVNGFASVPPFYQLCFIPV
Data set [6] deals with T1, Cannabinoid receptor 2 (Homo sapiens, UniProt P34972). The data set is described as follows: Agonist activity at human recombinant CB2 receptor expressed in Saccharomyces cerevisiae cells. It counts as functional, cell-based.
T1 sequence (P34972 whole entry): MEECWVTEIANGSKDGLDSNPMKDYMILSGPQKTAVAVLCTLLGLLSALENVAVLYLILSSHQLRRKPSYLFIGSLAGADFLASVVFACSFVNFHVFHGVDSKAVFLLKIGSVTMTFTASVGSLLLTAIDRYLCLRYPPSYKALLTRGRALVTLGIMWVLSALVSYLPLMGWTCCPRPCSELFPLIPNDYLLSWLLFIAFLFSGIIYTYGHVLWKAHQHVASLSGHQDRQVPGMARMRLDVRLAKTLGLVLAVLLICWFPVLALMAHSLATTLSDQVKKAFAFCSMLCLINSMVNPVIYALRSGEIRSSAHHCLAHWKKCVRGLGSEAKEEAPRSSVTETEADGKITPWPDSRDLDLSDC
Data set [7] has as its system Rattus norvegicus. The data set is described as follows: Reversal of FCA-induced hyperalgesia in rat administered thrice daily at 1 mg/kg, po. The format is functional, organism-based. Also noted: dose 1 mg/kg.
The subject of data set [8] is Rattus norvegicus. The data set can be described thus: Reversal of hyperalgesia in rat at 0.3 mg/kg, po by weight bearing protocol. The format is functional, organism-based. Also noted: dose 0.3 mg/kg.
Data set [9] concerns the target Cytochrome P450 2C19 (Homo sapiens, UniProt P33261). The data set can be described thus: Inhibition of human CYP2C19. It counts as ADME.
Data set [10] can be described thus: Half life in rat. It counts as ADME, organism-based. The settings on record: in vivo.
In data set [11] the target is T1, Cannabinoid receptor 2. The data set is described as follows: Efficacy at human recombinant CB2 receptor expressed in Saccharomyces cerevisiae cells relative to HU210. It counts as cell-based.
Data set [12] concerns the target T2, Cannabinoid receptor 2 (Rattus norvegicus, UniProt Q9QZN9).
T2 sequence (Q9QZN9 whole entry): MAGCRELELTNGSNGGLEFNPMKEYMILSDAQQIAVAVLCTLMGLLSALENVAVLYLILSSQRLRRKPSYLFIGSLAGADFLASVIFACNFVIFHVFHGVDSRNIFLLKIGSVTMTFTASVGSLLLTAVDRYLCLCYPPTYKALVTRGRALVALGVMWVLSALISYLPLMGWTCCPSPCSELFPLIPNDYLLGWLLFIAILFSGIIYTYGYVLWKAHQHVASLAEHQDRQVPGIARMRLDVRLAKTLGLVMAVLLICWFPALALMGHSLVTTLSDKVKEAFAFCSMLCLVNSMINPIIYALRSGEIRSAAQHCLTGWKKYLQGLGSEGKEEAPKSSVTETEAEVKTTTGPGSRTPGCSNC
The data set is described as follows: (§1) Agonist activity at rat CB2 receptor. It counts as functional.

Data set [13] addresses T3, Cannabinoid receptor 2 (Rattus norvegicus) (UniProt Q9QZN9).
T3 sequence (whole entry): T2 sequence (Q9QZN9 whole entry)
The description is as §1. It counts as functional.

For data set [14], the target named is Cytochrome P450 2D6 (Homo sapiens, UniProt P10635). The data set is described as follows: Inhibition of human CYP2D6. The format is ADME.
Cytochrome P450 2D6, sequence (P10635 whole entry): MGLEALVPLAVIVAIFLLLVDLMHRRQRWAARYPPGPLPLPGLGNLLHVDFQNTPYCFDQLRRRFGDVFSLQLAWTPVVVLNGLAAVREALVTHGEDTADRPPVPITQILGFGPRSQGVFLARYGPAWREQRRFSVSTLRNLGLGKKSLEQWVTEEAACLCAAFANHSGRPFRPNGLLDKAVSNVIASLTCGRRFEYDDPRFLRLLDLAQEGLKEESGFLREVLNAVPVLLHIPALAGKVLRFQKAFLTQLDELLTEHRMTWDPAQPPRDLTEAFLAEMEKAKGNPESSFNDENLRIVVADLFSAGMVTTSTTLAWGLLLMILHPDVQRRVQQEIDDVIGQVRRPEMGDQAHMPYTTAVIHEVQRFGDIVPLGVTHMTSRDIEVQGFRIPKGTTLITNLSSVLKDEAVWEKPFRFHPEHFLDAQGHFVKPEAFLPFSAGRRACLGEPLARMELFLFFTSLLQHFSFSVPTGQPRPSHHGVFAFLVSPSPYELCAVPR
Data set [15] is described as follows: Drug concentration in blood of rat FCA model of inflammatory pain at 0.03 mg/kg, po after 1hr. The format is ADME, organism-based. The settings on record: read-out: Activity. Details: dose 0.03 mg/kg, route oral.
Data set [16] has as its target T4, Cytochrome P450 1A2 (Homo sapiens, UniProt P05177).
T4 sequence (P05177 whole entry): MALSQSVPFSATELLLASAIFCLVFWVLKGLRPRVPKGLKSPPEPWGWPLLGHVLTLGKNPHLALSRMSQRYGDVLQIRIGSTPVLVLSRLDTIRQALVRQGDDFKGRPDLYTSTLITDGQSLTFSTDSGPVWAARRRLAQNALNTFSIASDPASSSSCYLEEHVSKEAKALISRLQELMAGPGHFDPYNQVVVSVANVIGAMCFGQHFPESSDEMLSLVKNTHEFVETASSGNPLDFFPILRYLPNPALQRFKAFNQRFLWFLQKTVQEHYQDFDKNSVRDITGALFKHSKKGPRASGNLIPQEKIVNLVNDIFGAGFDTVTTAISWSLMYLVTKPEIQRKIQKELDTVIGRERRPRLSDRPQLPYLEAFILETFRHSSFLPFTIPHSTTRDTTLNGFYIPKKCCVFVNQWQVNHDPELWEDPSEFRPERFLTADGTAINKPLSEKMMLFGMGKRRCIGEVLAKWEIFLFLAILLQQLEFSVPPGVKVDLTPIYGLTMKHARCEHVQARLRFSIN
The data set can be described thus: Inhibition of human CYP1A2. The format is ADME.

The subject of data set [17] is Rattus norvegicus. The data set is described as follows: Analgesic activity in po dosed rat FCA model of inflammatory pain. It counts as functional.
Data set [18] relates to Rattus norvegicus. The data set can be described thus: Reversal of antihypersensitivity to pain in rat FCA model of inflammatory pain at 15 mg/kg, ip after 1 hr. It counts as functional, organism-based. Also noted: dose 15 mg/kg.

The source made the active and inactive calls. The rule behind the calls is not given here.

In general, bioavailability refers to the share of a dose that reaches the circulation, judged against a reference dose that is usually intravenous. High values mean good availability, low ones poor availability. As usually defined, the IC50 is the concentration that gives 50% inhibition. A high value points to a need for much substance. Usually EC50 stands for the concentration that produces a half-maximal response. As a reminder, the half-life is the time in which the quantity being followed falls by half. Low readings indicate rapid decline, high ones slow decline. As usually defined, the ED50 is the dose that gives a 50% effect, or the effect in half of the subjects.

Cytochrome P450 3A4, sequence (P08684 whole entry): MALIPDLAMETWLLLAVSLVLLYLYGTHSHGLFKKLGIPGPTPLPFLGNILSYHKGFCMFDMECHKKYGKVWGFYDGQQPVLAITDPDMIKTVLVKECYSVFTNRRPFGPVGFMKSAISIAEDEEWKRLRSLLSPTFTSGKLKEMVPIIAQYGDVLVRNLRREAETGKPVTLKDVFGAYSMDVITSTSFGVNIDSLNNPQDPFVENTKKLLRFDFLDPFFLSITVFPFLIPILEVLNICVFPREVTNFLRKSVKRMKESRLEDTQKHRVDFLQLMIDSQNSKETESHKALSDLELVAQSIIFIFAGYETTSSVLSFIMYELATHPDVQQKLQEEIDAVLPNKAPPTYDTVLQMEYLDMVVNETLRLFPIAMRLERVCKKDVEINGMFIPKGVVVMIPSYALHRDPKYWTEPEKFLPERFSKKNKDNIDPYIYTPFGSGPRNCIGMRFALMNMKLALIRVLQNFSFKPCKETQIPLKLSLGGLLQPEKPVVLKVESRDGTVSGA
Cytochrome P450 2C19, sequence (P33261 whole entry): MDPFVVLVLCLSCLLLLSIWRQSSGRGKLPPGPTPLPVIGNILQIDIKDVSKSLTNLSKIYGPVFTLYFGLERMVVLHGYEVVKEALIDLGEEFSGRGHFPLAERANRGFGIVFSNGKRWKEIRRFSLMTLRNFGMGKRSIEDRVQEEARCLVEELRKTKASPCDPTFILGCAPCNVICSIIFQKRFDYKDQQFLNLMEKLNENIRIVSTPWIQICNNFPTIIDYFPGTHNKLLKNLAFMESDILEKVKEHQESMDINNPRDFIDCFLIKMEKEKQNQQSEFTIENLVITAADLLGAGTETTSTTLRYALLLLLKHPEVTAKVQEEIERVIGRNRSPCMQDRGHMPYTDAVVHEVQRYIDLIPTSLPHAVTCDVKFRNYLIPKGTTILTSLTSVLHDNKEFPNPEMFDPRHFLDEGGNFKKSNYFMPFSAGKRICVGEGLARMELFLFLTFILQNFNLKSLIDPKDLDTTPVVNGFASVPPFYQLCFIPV

For `O=C(NCC1CCOCC1)c1cnc(Nc2ccc(Cl)cc2Cl)nc1C(F)(F)F` [GW842166X], the concentration at 1 h in [1] is 130 nM; in [2], 370 nM; in [15] it was 30 nM. The compound further returned a bioavailability in data set [3] of 58%. Besides, the IC50 in [4], in data set [5], in data set [9], in [14] and in data set [16] was above 100 µM in each case. In addition, the 50% effective concentration (EC50) is 0.063 µM in [6] and 0.091 µM in data set [12]. In addition, the outcome in [7] and in [8] was Active. In data set [10], the half-life was 3 h. Further, the Efficacy in data set [11] stood at 95%; in data set [13], 100%. This compound also returned a 50% effective dose (ED50) in data set [17] of 0.1 mg/kg.
Regarding `COc1ccc(C(=O)c2c(C)n(CCN3CCOCC3)c3cc(I)ccc23)cc1`, the outcome in [18] was Active.
